Experimental data reported in patent US6316623A, “Ethylenediamine compound libraries” (priority 1998, dated 2001).

Test system: E. coli imp-
Assay: microbe, parasite or virus in culture
Type: cell-based
Conditions: Escherichia coli, 24 h, read-out: % inhibition of bacterial growth in culture
Experimental: In this assay, the strain E. coli imp-obtained from Spenser Bensen (Sampson, B. A., Misra, R. & Benson, S. A. (1989), Genetics, 122, 491-501, Identification and characterization of a new gene of Escherichia coli K-12 involved in outer membrane permeability) is used. To initiate the exponential phase of bacterial growth prior to the assay, a sample of bacteria was grown overnight at 37° C. in Luria broth and then used to reinoculate sample wells of 96-well microtiter plates. The assays were carried out in the 96-well microtiter plates in 150 μL volume with approximately 1×10^6 cells per well.
Bacteria in Luria broth (75 μL) was added to the compound mixtures in solution in 75 μL water in the individual well of the microtiter plate. Final concentrations of the compound mixtures were 25 μM, 10 μM and 1 μM. Each concentration of the compound mixtures were assayed in triplicate. The plates were incubated at 37° C. and growth monitored over a 24 hour period by measuring the optical density at 595 nm using a BioRad model 3550 UV microplate reader. The percentage of growth relative to a well containing no compound was determined. Ampicillin and tetracycline antibiotic positive controls were concurrently tested in each screening assay.

CC(C)(C)c1ccc(C(=O)N(CCNC(=O)c2cnccn2)CC2CCCN(C(=O)Cc3ccccc3)C2)cc1 (racemic) [compound 17957]
inhibition at 500 µM: 95.7%

CC(C)(C)c1ccc(C(=O)N(CCNC(N)=O)CC2CCCN(C(=O)CO)C2)cc1 (racemic) [compound 17959]
inhibition at 500 µM: 39.5%

Cc1ccc(NC(=O)NCCN(C(=O)C2CC2)C2CCN(C(=O)Cc3ccccc3)C2)cc1 (racemic) [compound 17986]
inhibition at 500 µM: 35.2%

CC(C)(C)c1ccc(C(=O)N(CCNC(=O)c2cnccn2)C2CCN(C(=O)Cc3ccccc3)C2)cc1 (racemic) [compound 17989]
inhibition at 500 µM: 38.5%

O=C(NCCN(C(=O)CO)C1CCN(C(=O)Cc2ccccc2)C1)c1cnccn1 (racemic) [compound 18005]
inhibition at 500 µM: 61.1%

CC(C)(C)c1ccc(C(=O)N(CCNC(=O)c2cnccn2)CC2CCN(C(=O)Cc3ccccc3)CC2)cc1 [compound 17925]
inhibition at 500 µM: 93.9%

CC(C)(C)c1ccc(C(=O)N(CCNC(N)=O)CC2CCN(C(=O)CO)CC2)cc1 [compound 17927]
inhibition at 500 µM: 96.3%

Cc1ccc(NC(=O)NCCN(CC2CCN(C(=O)CO)CC2)C(=O)c2ccc(N)cc2)cc1 [compound 17946]
inhibition at 500 µM: 98.7%
